Test results reported in PubChem BioAssay AID1259407 (Chemical Carcinogenesis Research Information System (CCRIS), 2018).
Active and inactive are the calls of the source. No rule for the calls is given here.

Test system: CCRIS mutagenicity, Ames/micronucleus/aberration tests
Test: CCRIS mutagenicity studies
[1] = Test System: AMES SALMONELLA TYPHIMURIUM, Strain/Indicator: TA98, Metabolic Activation: NONE, Method: STANDARD PLATE
[2] = Test System: AMES SALMONELLA TYPHIMURIUM, Strain/Indicator: TA98, Metabolic Activation: RAT, LIVER, S-9, AROCLOR 1254, Method: STANDARD PLATE
[3] = Test System: AMES SALMONELLA TYPHIMURIUM, Strain/Indicator: TA100, Metabolic Activation: NONE, Method: STANDARD PLATE
[4] = Test System: AMES SALMONELLA TYPHIMURIUM, Strain/Indicator: TA100, Metabolic Activation: RAT, LIVER, S-9, AROCLOR 1254, Method: STANDARD PLATE
[5] = Test System: AMES SALMONELLA TYPHIMURIUM, Strain/Indicator: TA1535, Metabolic Activation: NONE, Method: STANDARD PLATE
[6] = Test System: AMES SALMONELLA TYPHIMURIUM, Strain/Indicator: TA1535, Metabolic Activation: RAT, LIVER, S-9, AROCLOR 1254, Method: STANDARD PLATE
[7] = Test System: AMES SALMONELLA TYPHIMURIUM, Strain/Indicator: TA1537, Metabolic Activation: NONE, Method: STANDARD PLATE
[8] = Test System: AMES SALMONELLA TYPHIMURIUM, Strain/Indicator: TA1537, Metabolic Activation: RAT, LIVER, S-9, AROCLOR 1254, Method: STANDARD PLATE
[9] = Test System: AMES SALMONELLA TYPHIMURIUM, Strain/Indicator: TA1538, Metabolic Activation: NONE, Method: STANDARD PLATE
[10] = Test System: AMES SALMONELLA TYPHIMURIUM, Strain/Indicator: TA1538, Metabolic Activation: RAT, LIVER, S-9, AROCLOR 1254, Method: STANDARD PLATE

## CCOc1ccc(NC(C)=O)cc1
End Point: IN VITRO MICRONUCLEUS, Test System: CHL/IU CELLS, Metabolic Activation: RAT, LIVER, S-9, PHENOBARBITAL AND 5,6-BENZOFLAVONE
  mutagenic call: inactive; negative
End Point: IN VITRO MICRONUCLEUS, Test System: RAT KIDNEY FIBROBLAST NRK-49F, Metabolic Activation: NONE
  mutagenic call: inactive; negative
Test System: AMES SALMONELLA TYPHIMURIUM, Strain/Indicator: TA98, Metabolic Activation: GUINEA PIG, LIVER, S-9, PCB, Method: PREINCUBATION
  mutagenic call: inactive; negative
Test System: AMES SALMONELLA TYPHIMURIUM, Strain/Indicator: TA98, Metabolic Activation: HAMSTER, LIVER, S-9, AROCLOR 1254, Method: STANDARD PLATE
  mutagenic call: inactive; negative
Test System: AMES SALMONELLA TYPHIMURIUM, Strain/Indicator: TA98, Metabolic Activation: HAMSTER, LIVER, S-9, PCB, Method: PREINCUBATION
  mutagenic call: inactive; negative
Test System: AMES SALMONELLA TYPHIMURIUM, Strain/Indicator: TA98, Metabolic Activation: MOUSE, LIVER, S-9, AROCLOR 1254, Method: STANDARD PLATE
  mutagenic call: inactive; negative
Test System: AMES SALMONELLA TYPHIMURIUM, Strain/Indicator: TA98, Metabolic Activation: MOUSE, LIVER, S-9, PCB, Method: PREINCUBATION
  mutagenic call: inactive; negative
Test System: AMES SALMONELLA TYPHIMURIUM, Strain/Indicator: TA98, Metabolic Activation: NONE, Method: PREINCUBATION
  mutagenic call: inactive; negative
[1]
  mutagenic call: inactive; negative
[2]
  mutagenic call: inactive; negative
Test System: AMES SALMONELLA TYPHIMURIUM, Strain/Indicator: TA98, Metabolic Activation: RAT, LIVER, S-9, PCB, Method: PREINCUBATION
  mutagenic call: inactive; negative
Test System: AMES SALMONELLA TYPHIMURIUM, Strain/Indicator: TA100, Metabolic Activation: GUINEA PIG, LIVER, S-9, PCB, Method: PREINCUBATION
  mutagenic call: active; positive
Test System: AMES SALMONELLA TYPHIMURIUM, Strain/Indicator: TA100, Metabolic Activation: HAMSTER, LIVER, S-9, AROCLOR 1254, Method: STANDARD PLATE
  mutagenic call: active; positive
Test System: AMES SALMONELLA TYPHIMURIUM, Strain/Indicator: TA100, Metabolic Activation: HAMSTER, LIVER, S-9, KANECHLOR 400, Method: PREINCUBATION
  mutagenic call: active; positive
Test System: AMES SALMONELLA TYPHIMURIUM, Strain/Indicator: TA100, Metabolic Activation: HAMSTER, LIVER, S-9, PCB, Method: PREINCUBATION
  mutagenic call: active; positive
Test System: AMES SALMONELLA TYPHIMURIUM, Strain/Indicator: TA100, Metabolic Activation: HAMSTER, LIVER, S-9, Method: PREINCUBATION
  mutagenic call: inactive; negative
Test System: AMES SALMONELLA TYPHIMURIUM, Strain/Indicator: TA100, Metabolic Activation: MOUSE, LIVER, S-9, AROCLOR 1254, Method: STANDARD PLATE
  mutagenic call: inactive; negative
Test System: AMES SALMONELLA TYPHIMURIUM, Strain/Indicator: TA100, Metabolic Activation: MOUSE, LIVER, S-9, PCB, Method: PREINCUBATION
  mutagenic call: inactive; negative
Test System: AMES SALMONELLA TYPHIMURIUM, Strain/Indicator: TA100, Metabolic Activation: NONE, Method: PREINCUBATION
  mutagenic call: inactive; negative
[3]
  mutagenic call: inactive; negative
[4]
  mutagenic call: inactive; negative
Test System: AMES SALMONELLA TYPHIMURIUM, Strain/Indicator: TA100, Metabolic Activation: RAT, LIVER, S-9, KANECHLOR 400, Method: PREINCUBATION
  mutagenic call: inactive; negative
Test System: AMES SALMONELLA TYPHIMURIUM, Strain/Indicator: TA100, Metabolic Activation: RAT, LIVER, S-9, PCB, Method: PREINCUBATION
  mutagenic call: inactive; negative
Test System: AMES SALMONELLA TYPHIMURIUM, Strain/Indicator: TA100, Metabolic Activation: RAT, LIVER, S-9, Method: PREINCUBATION
  mutagenic call: inactive; negative
Test System: AMES SALMONELLA TYPHIMURIUM, Strain/Indicator: TA1535, Metabolic Activation: HAMSTER, LIVER, S-9, AROCLOR 1254, Method: STANDARD PLATE
  mutagenic call: inactive; negative
Test System: AMES SALMONELLA TYPHIMURIUM, Strain/Indicator: TA1535, Metabolic Activation: MOUSE, LIVER, S-9, AROCLOR 1254, Method: STANDARD PLATE
  mutagenic call: inactive; negative
[5]
  mutagenic call: inactive; negative
[6]
  mutagenic call: inactive; negative
Test System: AMES SALMONELLA TYPHIMURIUM, Strain/Indicator: TA1537, Metabolic Activation: HAMSTER, LIVER, S-9, AROCLOR 1254, Method: STANDARD PLATE
  mutagenic call: inactive; negative
Test System: AMES SALMONELLA TYPHIMURIUM, Strain/Indicator: TA1537, Metabolic Activation: MOUSE, LIVER, S-9, AROCLOR 1254, Method: STANDARD PLATE
  mutagenic call: inactive; negative
[7]
  mutagenic call: inactive; negative
[8]
  mutagenic call: inactive; negative
Test System: AMES SALMONELLA TYPHIMURIUM, Strain/Indicator: TA1538, Metabolic Activation: HAMSTER, LIVER, S-9, AROCLOR 1254, Method: STANDARD PLATE
  mutagenic call: inactive; negative
Test System: AMES SALMONELLA TYPHIMURIUM, Strain/Indicator: TA1538, Metabolic Activation: MOUSE, LIVER, S-9, AROCLOR 1254, Method: STANDARD PLATE
  mutagenic call: inactive; negative
[9]
  mutagenic call: inactive; negative
[10]
  mutagenic call: inactive; negative
Test System: CHINESE HAMSTER V-79, Strain/Indicator: V-79/6-THIOGUANINE, Metabolic Activation: HAMSTER, LIVER, S-9, AROCLOR 1254, Method: SUSPENSION/PLATE
  mutagenic call: active; positive
Test System: CHINESE HAMSTER V-79, Strain/Indicator: V-79/6-THIOGUANINE, Metabolic Activation: NONE, Method: SUSPENSION/PLATE
  mutagenic call: inactive; negative
Test System: CHINESE HAMSTER V-79, Strain/Indicator: V-79/6-THIOGUANINE, Metabolic Activation: RAT, LIVER, S-9, PHENOBARBITAL AND BETA-NAPHTHOFLAVONE, Method: SUSPENSION/PLATE
  mutagenic call: inactive; negative
Test System: E. COLI, Strain/Indicator: WP2 UVRA, Metabolic Activation: HAMSTER, LIVER, S-9, AROCLOR 1254, Method: STANDARD PLATE
  mutagenic call: inactive; negative
Test System: E. COLI, Strain/Indicator: WP2 UVRA, Metabolic Activation: HAMSTER, LIVER, S-9, Method: STANDARD PLATE
  mutagenic call: inactive; negative
Test System: E. COLI, Strain/Indicator: WP2 UVRA, Metabolic Activation: MOUSE, LIVER, S-9, AROCLOR 1254, Method: STANDARD PLATE
  mutagenic call: inactive; negative
Test System: E. COLI, Strain/Indicator: WP2 UVRA, Metabolic Activation: MOUSE, LIVER, S-9, Method: STANDARD PLATE
  mutagenic call: inactive; negative
Test System: E. COLI, Strain/Indicator: WP2 UVRA, Metabolic Activation: NONE, Method: STANDARD PLATE
  mutagenic call: inactive; negative
Test System: E. COLI, Strain/Indicator: WP2 UVRA, Metabolic Activation: RAT, LIVER, S-9, AROCLOR 1254, Method: STANDARD PLATE
  mutagenic call: inactive; negative
Test System: E. COLI, Strain/Indicator: WP2 UVRA, Metabolic Activation: RAT, LIVER, S-9, Method: STANDARD PLATE
  mutagenic call: inactive; negative

## Nc1ccccc1C(F)(F)F
[1]
  mutagenic call: inactive; negative
[2]
  mutagenic call: inactive; negative
[3]
  mutagenic call: inactive; negative
[4]
  mutagenic call: inactive; negative
[5]
  mutagenic call: inactive; negative
[6]
  mutagenic call: inactive; negative
[7]
  mutagenic call: inactive; negative
[8]
  mutagenic call: inactive; negative
[9]
  mutagenic call: inactive; negative
[10]
  mutagenic call: inactive; negative
